Laboratory results as given in patent publication US12156893B2, “Oral composition comprising lactic acid bacteria for regulating immune responses and methods related thereto” (The Regents of the University of California, priority 2016, dated 2024).

Experiments:
Type in all cases: cell-based, human
OSCSCs = test: Chemotherapy-induced cell death of NK-differentiated OSCSCs; details: OSCSCs differentiated with NK supernatants
MP2 tumors = test: Chemotherapy-induced cell death of MP2 tumors; details: for Cell death of NK-differentiated MP2: MP2 differentiated with NK-supernatants
NK cells = test: Production of cytokines, growth factors and chemokines by NK cells treated with bacterial strains (Bio-Plex 27-plex); design: unit not given here
Protocol: Different strains of probiotic bacteria were tested for their ability to induce IFN-g as well as a number of important cytokines, chemokines and growth factors (Table 1). To assess the levels of each strain used in the combination we used an activation index established in the lab for the NK cells which consisted of the use of a specific ratio of several important cytokines and chemokines that prevented auto-immunity while enhancing significant activation of NK cells under pathologic conditions. Therefore, the strains were selected to: 1) provide regulated activation of NK cells when no activation of NK cells is desired; 2) when activated by cytokines and/or cross-linking of the important receptors which occurs during functional activation of NK cells in cancer is to induce maximal activation of NK cells; and 3) provide diversity for gut microflora. These criteria allow us to use bacteria to regulate the gut mucosal immunity in such a way that we will only increase NK activation when needed during infections or malignancies. In other words when there is no need for function of NK cells bacteria will regulate NK function to not induce inflammation; however, during need which occurs under the pathological conditions NK cells are triggered to function at the maximal levels. Such coordinated regulation of NK cell function should be effective in halting unwanted inflammation while providing effective and maximal immunity during disease.
Written informed consents, approved by UCLA Institutional Review Board (IRB), were obtained from healthy blood donors, and all procedures were approved by the UCLA-IRB. Peripheral blood was separated using Ficoll-Hypaque centrifugation, after which the white, cloudy layer, containing peripheral blood mononuclear cells (PBMC), was harvested, washed and re-suspended in RPMI 1640 (Invitrogen by Life Technologies, CA) supplemented with 10% FBS and plated on plastic tissue culture dishes. After 1-2 hours of incubation, non-adherent, human peripheral blood lymphocytes (PBL) were collected. NK cells were negatively selected and isolated from PBLs using the EasySep® Human NK cell enrichment kit purchased from Stem Cell Technologies (Vancouver, BC, Canada). Isolated NK cells were stained with anti-CD16 antibody, to measure NK cell purity using flow cytometric analysis. The isolated NK cell population was greater than 90% purity. Purified NK cells were cultured in RPMI Medium 1640 supplemented with 10% FBS (Gemini Bio-Products, CA), 1% antibiotic antimycotic, 1% sodium pyruvate, and 1% MEM non-essential amino acids (Invitrogen, Life Technologies, CA).
Purified NK cells from healthy donors were left untreated or treated with IL-2 (1000 units/ml) or the combination of anti-CD16 mAb (3 μg/ml) and IL-2 (1000 units/ml) in the presence or absence of bacterial strains at 1:5 ratio (NK cell: bacteria) for 12-18 hours. Afterwards, the levels of cytokines, growth factors and chemokines were determined using Bio-Plex Pro Human Cytokine 27-plex Assay Kit.

PL12 or Capan = test: NAC-induced cell death of well-differentiated pancreatic tumors; details: NAC added to well-differentiated PL12 or Capan
[1] = Treatment NK (no activation), bacteria 1:5 NK cell:bacteria, 12-18 hours
[2] = Treatment NK + IL-2 (1000 units/ml), bacteria 1:5, 12-18 hours
[3] = Treatment NK + IL-2 + anti-CD16 mAb (3 μg/ml), bacteria 1:5, 12-18 hours

CC(=O)O[C@H]1C(=O)[C@@]2(C)[C@H]([C@H](OC(=O)c3ccccc3)[C@]3(O)C[C@H](OC(=O)[C@H](O)[C@@H](NC(=O)c4ccccc4)c4ccccc4)C(C)=C1C3(C)C)[C@]1(OC(C)=O)CO[C@@H]1C[C@@H]2O [Paclitaxel]
Cell death of NK-differentiated OSCSCs (OSCSCs): higher cell death | Cell death of NK-differentiated MP2 (MP2 tumors): significant susceptibility

[NH2][Pt]([NH2])([Cl])[Cl] [CDDP, Cisplatin]
Cell death of NK-differentiated OSCSCs (OSCSCs): significant susceptibility | Cell death of NK-differentiated MP2 (MP2 tumors): significant susceptibility

Bifidobacterium breve [B. breve]
Eotaxin (NK cells; [1]): 15 | G-CSF (NK cells; [1]): 363 | GM-CSF (NK cells; [1]): 101 | IFN-γ (NK cells; [1]): 99 | IL-1B (NK cells; [1]): 200 | IL-1ra (NK cells; [1]): 196 | IL-6 (NK cells; [1]): 9726 | IL-8 (NK cells; [1]): 3975 | IL-10 (NK cells; [1]): 127 | IL-12p70 (NK cells; [1]): 10 | IL-13 (NK cells; [1]): 5 | IL-17 (NK cells; [1]): 53 | IP-10 (NK cells; [1]): 32 | MCP-1 (NK cells; [1]): 265 | RANTES (NK cells; [1]): 1662 | TNF-α (NK cells; [1]): 2904 | Eotaxin (NK cells; [2]): 22 | G-CSF (NK cells; [2]): 138 | GM-CSF (NK cells; [2]): 127 | IFN-γ (NK cells; [2]): 284 | IL-1B (NK cells; [2]): 165 | IL-1ra (NK cells; [2]): 470 | IL-6 (NK cells; [2]): 3402 | IL-8 (NK cells; [2]): 1912 | IL-10 (NK cells; [2]): 36 | IL-12p70 (NK cells; [2]): 21 | IL-13 (NK cells; [2]): 9 | IL-17 (NK cells; [2]): 57 | IP-10 (NK cells; [2]): 35 | MCP-1 (NK cells; [2]): 72 | RANTES (NK cells; [2]): 1988 | TNF-α (NK cells; [2]): 1868 | Eotaxin (NK cells; [3]): 29 | G-CSF (NK cells; [3]): 289 | GM-CSF (NK cells; [3]): 180 | IFN-γ (NK cells; [3]): 844 | IL-1B (NK cells; [3]): 421 | IL-1ra (NK cells; [3]): 565 | IL-6 (NK cells; [3]): 7261 | IL-8 (NK cells; [3]): 4929 | IL-10 (NK cells; [3]): 68 | IL-12p70 (NK cells; [3]): 26 | IL-13 (NK cells; [3]): 28 | IL-17 (NK cells; [3]): 72 | IP-10 (NK cells; [3]): 55 | MCP-1 (NK cells; [3]): 153 | RANTES (NK cells; [3]): 3934 | TNF-α (NK cells; [3]): 1498

Lactobacillus plantarum [L. plantarum]
Eotaxin (NK cells; [1]): 36 | G-CSF (NK cells; [1]): 236 | GM-CSF (NK cells; [1]): 122 | IFN-γ (NK cells; [1]): 282 | IL-1B (NK cells; [1]): 645 | IL-1ra (NK cells; [1]): 323 | IL-6 (NK cells; [1]): 9500 | IL-8 (NK cells; [1]): 17756 | IL-10 (NK cells; [1]): 85 | IL-12p70 (NK cells; [1]): 130 | IL-13 (NK cells; [1]): 8 | IL-17 (NK cells; [1]): 78 | IP-10 (NK cells; [1]): 140 | MCP-1 (NK cells; [1]): 958 | RANTES (NK cells; [1]): 22609 | TNF-α (NK cells; [1]): 13887 | Eotaxin (NK cells; [2]): 36 | G-CSF (NK cells; [2]): 129 | GM-CSF (NK cells; [2]): 181 | IFN-γ (NK cells; [2]): 5484 | IL-1B (NK cells; [2]): 466 | IL-1ra (NK cells; [2]): 500 | IL-6 (NK cells; [2]): 4212 | IL-8 (NK cells; [2]): 3415 | IL-10 (NK cells; [2]): 43 | IL-12p70 (NK cells; [2]): 184 | IL-13 (NK cells; [2]): 14 | IL-17 (NK cells; [2]): 73 | IP-10 (NK cells; [2]): 115 | MCP-1 (NK cells; [2]): 427 | RANTES (NK cells; [2]): 1923 | TNF-α (NK cells; [2]): 9223 | Eotaxin (NK cells; [3]): 40 | G-CSF (NK cells; [3]): 125 | GM-CSF (NK cells; [3]): 216 | IFN-γ (NK cells; [3]): 3087 | IL-1B (NK cells; [3]): 714 | IL-1ra (NK cells; [3]): 575 | IL-6 (NK cells; [3]): 3679 | IL-8 (NK cells; [3]): 3247 | IL-10 (NK cells; [3]): 37 | IL-12p70 (NK cells; [3]): 155 | IL-13 (NK cells; [3]): 20 | IL-17 (NK cells; [3]): 78 | IP-10 (NK cells; [3]): 92 | MCP-1 (NK cells; [3]): 335 | RANTES (NK cells; [3]): 4147 | TNF-α (NK cells; [3]): 7942

CC(=O)N[C@@H](CS)C(=O)O [NAC, N-acetylcysteine]
Cell death of NK-differentiated OSCSCs (OSCSCs): significantly increased Paclitaxel-mediated cell death | Cell death (MP2 tumors; NAC added to poorly-differentiated MP2): lower/slight effect on cell death | Cell death (PL12 or Capan): greater levels of cell death
